For 10 molecules, MIC, Activity and survival results are on record in ChEMBL document CHEMBL6087460, “Generating a Peptide Library Using the Repeats of Amino Acid Scaffolds Created by Sliding the Framework of a 7-mer Human Chemerin Segment and Discovery of Potent Antibacterial and Antimycobacterial Peptides” (J Med Chem, 2025).

≈ marks a conversion by molar mass, not a printed value. Calls of active or inactive are those of the source.

Experiment [1] concerns Mycobacterium tuberculosis variant bovis. Description: Antitubercular activity against Mycobacterium bovis BCG incubated for 5 days by rezasurin dye based assay. It counts as functional. The conditions noted are these: 120 h, time 5 day.
For experiment [2] the test system is unchanged. The experiment can be described thus: Antimycobacterial activity against Mycobacterium bovis BCG infected in human THP-1 cells derived macrophages assessed as reduction in intracellular bacterial survival at 20 ug/ml incubated for 24 hrs relative to control. It counts as functional. The conditions noted are these: dose 20 µg/ml.
For experiment [3] the test system is unchanged. The experiment can be described thus: Antitubercular activity against Mycobacterium bovis BCG infected in BALB/c mouse assessed as bacterial survival in lungs at 5 mg/kg, iv administered once a day for 2 weeks measured on day 15 relative to control. The experiment is classed as functional. The note with it: 336 h.
For experiment [4] the test system is unchanged. The experiment can be described thus: Antitubercular activity against Mycobacterium bovis BCG infected in BALB/c mouse assessed as decrease in bacterial count in lungs at 2.5 to 5 mg/kg, iv administered once a day for 2 weeks. The experiment is classed as functional, organism-based. The conditions noted are these: dose 2.5-5 mg/kg.
The test system is the same in experiment [5]. Description: Antitubercular activity against Mycobacterium bovis BCG infected in BALB/c mouse assessed as decrease in bacterial count in spleen at 2.5 to 5 mg/kg, iv administered once a day for 2 weeks. It counts as functional, organism-based. The conditions noted are these: dose 2.5-5 mg/kg.
The test system is the same in experiment [6]. Description: Antimycobacterial activity against Mycobacterium bovis BCG infected in human THP-1 cells derived macrophages assessed as reduction in intracellular bacterial survival at 10 ug/ml incubated for 24 hrs relative to control. It counts as functional. The note with it: dose 10 µg/ml.
For experiment [7] the test system is unchanged. Description: Antitubercular activity against Mycobacterium bovis BCG infected in BALB/c mouse assessed as bacterial survival in spleen at 5 mg/kg, iv administered once a day for 2 weeks measured on day 15 relative to control. The experiment is classed as functional. The conditions noted are these: 336 h.

Usually MIC stands for the smallest concentration in the dilution series that meets the test's criterion for growth inhibition. Higher therefore signals weaker potency. For the molecule H-LGRLLGRLLGRL-OH, in experiment [1], the MIC came to 5 µM.
Still for that read-out and setting: next, H-GRLGRLGRLGRLGRL-OH: 5 µM.
Take H-GRLVGRLVGRLVGRLV-OH: the Activity is 20% in experiment [2] and 35% in experiment [6]. The survival at 5 mg/kg in experiment [3] and in experiment [7] was around 10% in each case. The result in experiment [4] and in experiment [5] was Active. Further, the MIC in experiment [1] stood at 2.5 µM.
As to H-VLGRVLGRVLGRVLGR-OH, the Activity in experiment [2] is 10%; in experiment [6] it was 25%. In addition, the survival at 5 mg/kg in experiment [3] and in experiment [7] was around 10% throughout. For the same molecule, the outcome in experiment [4] and in experiment [5] was Active. Also, the MIC in experiment [1] is 2.5 µM.
Turning to H-RLRLRLRLRL-OH, in experiment [1], 10 µM was the least that counted as inhibitory (MIC).
For H-RLVRLVRLVRLV-OH, inhibition of growth in experiment [1] (MIC) required 5 µM.
The same measure, in the same setting: next, H-KVLGKVLGKVLGKVLG-OH: above 10 µM; H-RLVRLVRLVRLVRLV-OH: above 10 µM; H-KVLKVLKVLKVL-OH: above 10 µM.
Same read-out and setting: next, `CO[C@H]1/C=C/O[C@@]2(C)Oc3c(C)c(O)c4c(O)c(c(/C=N/N5CCN(C)CC5)c(O)c4c3C2=O)NC(=O)/C(C)=C\C=C\[C@H](C)[C@H](O)[C@@H](C)[C@@H](O)[C@@H](C)[C@H](OC(C)=O)[C@@H]1C` [RIFAMPIN]: 0.25 µM (≈ 0.206 µg/mL).
